Among the data in PubChem BioAssay (NCI) are TGI values, retold here.

The structures appear in SMILES notation.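 Growth conditions: 96-well plates. Treatment: test compound, 48 hours, 5 concentrations. Analysis: linear interpolation between bracketing concentrations; unreached endpoints set to highest concentration. The concentration for full growth arrest is given as TGI.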

Test in all cases: growth of human tumour cells (NCI), 48 h
Assay [1] deals with ACHN renal.
Assay [2] deals with CAKI-1 renal.
Assay [3] deals with COLO 205 colon.
The subject of assay [4] is KM12 colon.
The test system of assay [5] is MALME-3M melanoma.
Assay [6] has as its system NCI-H522 lung.
Assay [7] has as its system OVCAR-3 ovarian.
Assay [8] has as its system RPMI-8226 leukemia.
The test system of assay [9] is SN12C renal.
The subject of assay [10] is SNB-19 CNS.
For assay [11], the system named is SW-620 colon.
Assay [12] has as its system TK-10 renal.
The subject of assay [13] is U251 CNS.
Assay [14] has as its system 786-0 renal.
The test system of assay [15] is DU-145 prostate.
The subject of assay [16] is HS 578T breast.
The test system of assay [17] is NCI/ADR-RES ovarian.
Assay [18] deals with SK-MEL-5 melanoma.
Assay [19] concerns SNB-75 CNS.
Assay [20] deals with BT-549 breast.

`O=C(c1ccccc1)c1nc2ccc(Cl)cc2c2c1CCCO2`: the TGI in assay [1], in [2], in assay [3], in assay [4], in assay [5] and in assay [6] was more than 100 µM in each case. Moreover, the TGI in [7], in [8], in assay [9], in [10], in assay [11] and in [12] was more than 100 µM in each case. The compound further registered a TGI in assay [13] of more than 100 µM.
Take `CC(NC(=O)c1ccc(NP(=O)(OCc2ccc([N+](=O)[O-])o2)N(C)CCCCCl)cc1)c1ccc(OCC2CCCCC2)c(C(N)=O)c1` (stereo unspecified): the TGI was 45.9 µM in assay [14]; more than 100 µM in assay [1]; more than 100 µM in assay [2]; 22.8 µM in assay [3]; more than 100 µM in assay [15]; 42.9 µM in [16]. Besides, the TGI in assay [4] was 32 µM; in assay [6], 34.2 µM; in assay [17], more than 100 µM; in assay [7], 33.9 µM; in [8], 21.1 µM; in assay [18], 17 µM. For the same compound, the TGI is 47.5 µM in assay [9]; 90.8 µM in assay [10]; 31.7 µM in [19]; 86.8 µM in [11]; 80.7 µM in [12]; 49.9 µM in assay [13].
Take `Cc1ccc2c(ccc(/C=C\c3cc(C)c4cccnc4c3O)[n+]2C)c1`: the TGI in [14] was more than 100 µM; in assay [1], 20.4 µM; in assay [2] it was 25.5 µM; in [3], 71.9 µM; in assay [4], 31.6 µM; in assay [5] it was 25.1 µM. Also, the TGI is 27.8 µM in assay [6]; 12.9 µM in [7]; 21.6 µM in [8]; 2.98 µM in assay [18]; 24.7 µM in assay [9]; 35 µM in assay [10]. Besides, the TGI is 30.1 µM in assay [11] and 68.7 µM in assay [13].
Take `CC(=O)n1cc(OP(=O)(Oc2ccccc2)Oc2ccccc2)c2ccccc21`: the TGI is more than 100 µM in [14]; more than 100 µM in assay [20]; 54.3 µM in assay [2]; 27.2 µM in assay [3]; more than 100 µM in assay [15]; more than 100 µM in assay [16]. The TGI is more than 100 µM in assay [4]; more than 100 µM in assay [5]; 44.3 µM in assay [17]; 93.6 µM in assay [7]; 42.2 µM in [8]; 40.9 µM in assay [18]. The TGI in assay [9], in [10], in assay [11], in [12] and in [13] was more than 100 µM in each case.
For `Clc1ccc(C[P+]2(c3ccccc3)CCCCC2)cc1`, the TGI in assay [14], in assay [1], in assay [3], in assay [4], in [5] and in [6] was more than 100 µM each time. Also, the TGI in assay [7] was more than 100 µM; in assay [8] it was more than 100 µM; in [18], 43.3 µM; in assay [9], more than 100 µM; in [10] it was more than 100 µM; in [19] it was more than 100 µM. Besides, the TGI in [11], in [12] and in assay [13] was more than 100 µM each time.
With `Cc1ccc(C2COc3cc(O)c(O)cc3C2)cc1` (stereo unspecified), the TGI in [2] turned out to be 38.1 µM; in [3], 26.2 µM; in assay [4], 127 µM; in [5], 48.9 µM; in assay [17], 40.8 µM; in [7], 23.1 µM. In addition, the TGI in [8] was found to be 37.9 µM; in assay [18], 105 µM; in [9], 103 µM; in [10], 251 µM; in assay [19], 126 µM; in [11], 34.5 µM. In addition, the TGI in assay [13] worked out at 94.3 µM.
In the case of `OCc1cc2ccncc2c2c1[nH]c1ccccc12`, the TGI in assay [1] was 15.9 µM; in assay [2] it was 17.9 µM; in assay [3], 29.4 µM; in [4], more than 100 µM; in assay [5], 24.6 µM; in [8] it was 37.2 µM. In addition, the TGI amounted to 25.1 µM in [18]; 30.3 µM in assay [9]; 19.5 µM in assay [19]; 19.7 µM in assay [11]; 67.7 µM in [12]; 18.9 µM in assay [13].
For the compound `C[N+](C)(C)c1cc2c(nn1)Nc1ccccc1S2`, the TGI is more than 100 µM in [14]; 69.6 µM in assay [1]; more than 100 µM in [20]; more than 100 µM in assay [2]; 38 µM in assay [3]; more than 100 µM in assay [15]. For the same compound, the TGI in assay [16] was more than 100 µM; in [4] it was more than 100 µM; in [5] it was 70 µM; in [6] it was 52.8 µM; in [17] it was 56.9 µM; in assay [7], 54.8 µM. The TGI in assay [8] is 36 µM; in [18], 29.9 µM; in [9], more than 100 µM; in [10] it was more than 100 µM; in assay [11], more than 100 µM; in assay [12], more than 100 µM. The TGI in assay [13] is 63.9 µM.
`CCOC(=O)c1c(C)n([O-])c2cc(Cl)c(Cl)cc2[n+]1=O`: the TGI was 84.5 µM in assay [14]; more than 100 µM in assay [1]; 75.9 µM in assay [20]; 53 µM in assay [2]; 39 µM in assay [3]; 30.8 µM in assay [15]. Further, the TGI is 58.3 µM in [16]; 27.5 µM in assay [4]; 66.6 µM in assay [17]; 37.1 µM in assay [7]; 34.9 µM in [8]; 36.5 µM in [18]. Moreover, the TGI is 51.9 µM in [9], more than 100 µM in assay [10], 54.8 µM in assay [12] and more than 100 µM in assay [13].
On to `O=C1/C(=C/c2ccc(Oc3ccccc3)cc2)N=C(c2ccccc2)N1c1ccc(S(=O)(=O)Nc2nccs2)cc1`, for which the TGI in assay [14] was more than 100 µM; in assay [1], more than 100 µM; in assay [2], more than 100 µM; in assay [3], 22.2 µM; in assay [15], more than 100 µM; in [16] it was more than 100 µM. Besides, the TGI in [4] was 53.7 µM; in [5], 86.6 µM; in assay [17], 46.6 µM; in assay [7], more than 100 µM; in assay [8], 32.3 µM; in [18] it was 49.8 µM. The TGI in assay [9] is more than 100 µM; in assay [10], more than 100 µM; in assay [19], 58.1 µM; in assay [11] it was more than 100 µM; in assay [12], more than 100 µM; in assay [13] it was more than 100 µM.
As to `Cc1nc2[nH]ncn2c(=O)c1CCCl`, the TGI in assay [1], in assay [2], in assay [3], in assay [15], in assay [16] and in [5] was more than 10 µM each time. Further, the TGI in [6], in assay [17], in [8], in [18], in assay [9] and in assay [10] was more than 10 µM in each case. The TGI in [19], in assay [11], in assay [12] and in assay [13] was more than 10 µM throughout.
Turning to `O=C(O)CCC(N=NNc1ccc(-c2nc3ccccc3[nH]2)cc1)C(=O)O` (stereo unspecified), the TGI is more than 100 µM in assay [14]; more than 100 µM in assay [1]; 70.6 µM in assay [20]; more than 100 µM in assay [2]; more than 100 µM in assay [3]; more than 100 µM in assay [15]. Also, the TGI in [16], in assay [4], in [6], in assay [17], in assay [7] and in [8] was more than 100 µM each time. In addition, the TGI in assay [18], in [9], in [10], in assay [19], in [11] and in [12] was more than 100 µM each time. This compound also returned a TGI in assay [13] of more than 100 µM.
On to `COc1cc(C(=O)CC2OC(=O)C(Cl)=C2Cl)ccc1Cl` (stereo unspecified), for which the TGI in assay [1], in [2], in assay [3], in [4], in assay [5] and in assay [6] was more than 100 µM each time. Moreover, the TGI in assay [7], in [8], in [18], in [9], in [10] and in assay [19] was more than 100 µM each time. Further, the TGI in assay [11], in assay [12] and in assay [13] was more than 100 µM throughout.
On to `CN=C(N)c1ccc(N=C(N)c2ccc(C(N)=Nc3ccc(C(N)=NC)cc3)cc2)cc1`, for which the TGI in [14], in assay [1], in assay [2], in [3], in assay [4] and in [5] was more than 100 µM in each case. Besides, the TGI in [6], in assay [7], in assay [8], in assay [18], in assay [9] and in assay [10] was more than 100 µM in each case. Besides, the TGI in assay [19], in assay [11], in [12] and in assay [13] was more than 100 µM throughout.
